This experiment relates to TNF-α production by PMBC. Nature of the experiment: Inhibition of TNF-α production by peripheral blood monocyte cells (PMBC), LPS-stimulated. It is filed as cell-based. Particulars: 1 ug/mL LPS, 24 hours at 37° C, TNF-α quantified by EIA. The method, then:
Inhibition of TNF-α Production By Peripheral Blood Monocyte Cells (PMBC)
PMBC in RPMI 1640 Cell Culture Medium (containing 1% Penicillin and 1% Streptomycin) are aliquoted into 96-well plates at 5×10^5 cells/well and pre-incubated with test compounds for 30 minutes at 37° C. After incubation, 1 ug/mL LPS is added to each well to stimulate TNF-α production and the plate is incubated for 24 hours at 37° C. After incubation, the supernatant is removed and the TNF-α secreted is quantified using EIA detection kits commercially available from R&D Systems (USA). The results from this assay are expressed as percent inhibition of control activity, with the control being stimulated wells with no test compound. Dexamethasone is used as a standard reference compound in the assay and is tested with each experiment. All test compounds are diluted from 10 mM stock solutions in 100% DMSO.

The structures appear in SMILES notation.

For orientation: IC50 means the concentration that inhibits the measured activity by half. A high value points to lower potency. `O=C1COc2cc([N+](=O)[O-])ccc2N1CCCCCB(O)O` [Example 6, 5-(2,3-dihydro-7-nitro-3-oxobenzo[b][1,4]oxazin-4-yl)pentylboronic acid] yielded an IC50 of 74 nM. As for `CCOC(=O)CC1Sc2ccccc2N(CCCCCB(O)O)C1=O` (stereo not drawn) [Example 8, ethyl 2-(3,4-dihydro-3-oxo-4-(5-pentylboronic acid)-2H-benzo[b][1,4]thiazin-2-yl)acetate], the concentration for half-maximal inhibition (IC50) was 810 nM. Take `O=C1COc2ccc(F)cc2N1CCCCCB(O)O` [Example 3, 5-(6-fluoro-2,3-dihydro-3-oxobenzo[b][1,4]oxazin-4-yl)pentylboronic acid]: half-maximal inhibition (IC50) was put at 260 nM. As to `O=C1CSc2cc(Cl)ccc2N1CCCCCB(O)O` [Example 5, 5-(7-chloro-2,3-dihydro-3-oxobenzo[b][1,4]thiazin-4-yl)pentylboronic acid], the IC50 is 80 nM.

The molecule `O=C1COc2ccccc2N1CCCCCB(O)O` [Example 7, 5-(2,3-dihydro-3-oxobenzo[b][1,4]oxazin-4-yl)pentylboronic acid] returned an IC50 of 360 nM. With `O=C1CSc2ccccc2N1CCCCCB(O)O` [Example 4, 5-(2,3-dihydro-3-oxobenzo[b][1,4]thiazin-4-yl)pentylboronic acid], the IC50 stood at 700 nM.
